{"source": "patent US20240382629A1", "about": "“HETEROBIVALENT AND HOMOBIVALENT AGENTS TARGETING FIBROBLAST ACTIVATION PROTEIN ALPHA AND/OR PROSTATE-SPECIFIC MEMBRANE ANTIGEN” (The Johns Hopkins University, priority 2021, published 2024)", "test": "Biodistribution of representative compounds (Example 13), % ID/g in tissues of tumor-bearing mice", "type": "in vivo, mouse", "conditions": "sub-heading prints [^18F]JHU1221785", "key": {"[1]": {"conditions": "60 min + Blocker cold FAPI-04 10 nmole"}}, "note": "Several values for one entry are separate records, joined by “and”; a condition that tells them apart may be missing. Equal entries are not always repeated.", "data": [{"smiles": "N#CC1CCCN1C(=O)CNC(=O)c1ccnc2ccc(OCCCNCC([18F])C(O)C(O)C(O)CO)cc12", "note": "(centres unmarked) [[^18F]FAP-FDG]", "values": [{"measurement": "% ID/g Bladder (individual mouse)", "setting": "[1]", "result": "1.45 % ID/g and 2.74 % ID/g"}, {"measurement": "% ID/g Blood (individual mouse)", "setting": "[1]", "result": "0.20 % ID/g and 0.25 % ID/g"}, {"measurement": "% ID/g Brain (individual mouse)", "setting": "[1]", "result": "4.18 % ID/g and 4.67 % ID/g"}, {"measurement": "% ID/g Fat (individual mouse)", "setting": "[1]", "result": "0.63 % ID/g and 0.26 % ID/g"}, {"measurement": "% ID/g Femur (individual mouse)", "setting": "[1]", "result": "1.33 % ID/g and 1.67 % ID/g"}, {"measurement": "% ID/g Heart (individual mouse)", "setting": "[1]", "result": "11.97 % ID/g and 17.79 % ID/g"}, {"measurement": "% ID/g Kidney (individual mouse)", "setting": "[1]", "result": "0.95 % ID/g and 0.87 % ID/g"}, {"measurement": "% ID/g Large intestine (individual mouse)", "setting": "[1]", "result": "3.51 % ID/g and 3.22 % ID/g"}, {"measurement": "% ID/g Liver (individual mouse)", "setting": "[1]", "result": "0.38 % ID/g and 0.55 % ID/g"}, {"measurement": "% ID/g Lung (individual mouse)", "setting": "[1]", "result": "2.25 % ID/g and 2.08 % ID/g"}, {"measurement": "% ID/g Mean Bladder", "setting": "[1]", "result": 2.10, "unit": "% ID/g"}, {"measurement": "% ID/g Mean Blood", "setting": "[1]", "result": 0.22, "unit": "% ID/g"}, {"measurement": "% ID/g Mean Brain", "setting": "[1]", "result": 4.43, "unit": "% ID/g"}, {"measurement": "% ID/g Mean Fat", "setting": "[1]", "result": 0.44, "unit": "% ID/g"}, {"measurement": "% ID/g Mean Femur", "setting": "[1]", "result": 1.50, "unit": "% ID/g"}, {"measurement": "% ID/g Mean Heart", "setting": "[1]", "result": 14.88, "unit": "% ID/g"}, {"measurement": "% ID/g Mean Kidney", "setting": "[1]", "result": 0.91, "unit": "% ID/g"}, {"measurement": "% ID/g Mean Large intestine", "setting": "[1]", "result": 3.37, "unit": "% ID/g"}, {"measurement": "% ID/g Mean Liver", "setting": "[1]", "result": 0.47, "unit": "% ID/g"}, {"measurement": "% ID/g Mean Lung", "setting": "[1]", "result": 2.17, "unit": "% ID/g"}, {"measurement": "% ID/g Mean Muscle", "setting": "[1]", "result": 6.73, "unit": "% ID/g"}, {"measurement": "% ID/g Mean Pancreas", "setting": "[1]", "result": 1.01, "unit": "% ID/g"}, {"measurement": "% ID/g Mean Salivary gland", "setting": "[1]", "result": 3.76, "unit": "% ID/g"}, {"measurement": "% ID/g Mean Small intestine", "setting": "[1]", "result": 0.77, "unit": "% ID/g"}, {"measurement": "% ID/g Mean Spleen", "setting": "[1]", "result": 1.30, "unit": "% ID/g"}, {"measurement": "% ID/g Mean Stomach", "setting": "[1]", "result": 2.76, "unit": "% ID/g"}, {"measurement": "% ID/g Mean Tumor", "setting": "[1]", "result": 3.65, "unit": "% ID/g"}, {"measurement": "% ID/g Muscle (individual mouse)", "setting": "[1]", "result": "6.83 % ID/g and 6.64 % ID/g"}, {"measurement": "% ID/g Pancreas (individual mouse)", "setting": "[1]", "result": "1.20 % ID/g and 0.82 % ID/g"}, {"measurement": "% ID/g Salivery gland (individual mouse)", "setting": "[1]", "result": "5.34 % ID/g and 2.19 % ID/g"}, {"measurement": "% ID/g Small intestine (individual mouse)", "setting": "[1]", "result": "0.61 % ID/g and 0.92 % ID/g"}, {"measurement": "% ID/g Spleen (individual mouse)", "setting": "[1]", "result": "0.92 % ID/g and 1.68 % ID/g"}, {"measurement": "% ID/g Stomach (individual mouse)", "setting": "[1]", "result": "3.50 % ID/g and 2.02 % ID/g"}, {"measurement": "% ID/g Tumor (individual mouse)", "setting": "[1]", "result": "3.33 % ID/g and 3.97 % ID/g"}, {"measurement": "% ID/g Bladder (individual mouse)", "setting": "60 min, 20 μCi per mouse", "result": "2.55 % ID/g and 2.49 % ID/g"}, {"measurement": "% ID/g Blood (individual mouse)", "setting": "60 min, 20 μCi per mouse", "result": "0.21 % ID/g and 0.25 % ID/g"}, {"measurement": "% ID/g Brain (individual mouse)", "setting": "60 min, 20 μCi per mouse", "result": "5.31 % ID/g and 6.18 % ID/g"}, {"measurement": "% ID/g Fat (individual mouse)", "setting": "60 min, 20 μCi per mouse", "result": "3.29 % ID/g and 1.13 % ID/g"}, {"measurement": "% ID/g Femur (individual mouse)", "setting": "60 min, 20 μCi per mouse", "result": "2.28 % ID/g and 2.68 % ID/g"}, {"measurement": "% ID/g Heart (individual mouse)", "setting": "60 min, 20 μCi per mouse", "result": "23.96 % ID/g and 16.00 % ID/g"}, {"measurement": "% ID/g Kidney (individual mouse)", "setting": "60 min, 20 μCi per mouse", "result": "1.13 % ID/g and 2.01 % ID/g"}, {"measurement": "% ID/g Large intestine (individual mouse)", "setting": "60 min, 20 μCi per mouse", "result": "4.03 % ID/g and 4.32 % ID/g"}, {"measurement": "% ID/g Liver (individual mouse)", "setting": "60 min, 20 μCi per mouse", "result": "0.55 % ID/g and 0.70 % ID/g"}, {"measurement": "% ID/g Lung (individual mouse)", "setting": "60 min, 20 μCi per mouse", "result": "2.15 % ID/g and 2.85 % ID/g"}, {"measurement": "% ID/g Mean Bladder", "setting": "60 min, 20 μCi per mouse", "result": 2.52, "unit": "% ID/g"}, {"measurement": "% ID/g Mean Blood", "setting": "60 min, 20 μCi per mouse", "result": 0.23, "unit": "% ID/g"}, {"measurement": "% ID/g Mean Brain", "setting": "60 min, 20 μCi per mouse", "result": 5.74, "unit": "% ID/g"}, {"measurement": "% ID/g Mean Fat", "setting": "60 min, 20 μCi per mouse", "result": 2.21, "unit": "% ID/g"}, {"measurement": "% ID/g Mean Femur", "setting": "60 min, 20 μCi per mouse", "result": 2.48, "unit": "% ID/g"}, {"measurement": "% ID/g Mean Heart", "setting": "60 min, 20 μCi per mouse", "result": 19.98, "unit": "% ID/g"}, {"measurement": "% ID/g Mean Kidney", "setting": "60 min, 20 μCi per mouse", "result": 1.57, "unit": "% ID/g"}, {"measurement": "% ID/g Mean Large intestine", "setting": "60 min, 20 μCi per mouse", "result": 4.17, "unit": "% ID/g"}, {"measurement": "% ID/g Mean Liver", "setting": "60 min, 20 μCi per mouse", "result": 0.63, "unit": "% ID/g"}, {"measurement": "% ID/g Mean Lung", "setting": "60 min, 20 μCi per mouse", "result": 2.50, "unit": "% ID/g"}, {"measurement": "% ID/g Mean Muscle", "setting": "60 min, 20 μCi per mouse", "result": 6.18, "unit": "% ID/g"}, {"measurement": "% ID/g Mean Pancreas", "setting": "60 min, 20 μCi per mouse", "result": 1.33, "unit": "% ID/g"}, {"measurement": "% ID/g Mean Salivary gland", "setting": "60 min, 20 μCi per mouse", "result": 5.31, "unit": "% ID/g"}, {"measurement": "% ID/g Mean Small intestine", "setting": "60 min, 20 μCi per mouse", "result": 1.06, "unit": "% ID/g"}, {"measurement": "% ID/g Mean Spleen", "setting": "60 min, 20 μCi per mouse", "result": 1.29, "unit": "% ID/g"}, {"measurement": "% ID/g Mean Stomach", "setting": "60 min, 20 μCi per mouse", "result": 2.72, "unit": "% ID/g"}, {"measurement": "% ID/g Mean Tumor", "setting": "60 min, 20 μCi per mouse", "result": 5.02, "unit": "% ID/g"}, {"measurement": "% ID/g Muscle (individual mouse)", "setting": "60 min, 20 μCi per mouse", "result": "7.65 % ID/g and 4.71 % ID/g"}, {"measurement": "% ID/g Pancreas (individual mouse)", "setting": "60 min, 20 μCi per mouse", "result": "1.25 % ID/g and 1.42 % ID/g"}, {"measurement": "% ID/g Salivery gland (individual mouse)", "setting": "60 min, 20 μCi per mouse", "result": "6.70 % ID/g and 3.91 % ID/g"}, {"measurement": "% ID/g Small intestine (individual mouse)", "setting": "60 min, 20 μCi per mouse", "result": "1.21 % ID/g and 0.91 % ID/g"}, {"measurement": "% ID/g Spleen (individual mouse)", "setting": "60 min, 20 μCi per mouse", "result": "1.20 % ID/g and 1.38 % ID/g"}, {"measurement": "% ID/g Stomach (individual mouse)", "setting": "60 min, 20 μCi per mouse", "result": "2.04 % ID/g and 3.39 % ID/g"}, {"measurement": "% ID/g Tumor (individual mouse)", "setting": "60 min, 20 μCi per mouse", "result": "4.12 % ID/g and 5.91 % ID/g"}]}]}
